Measurements reported in patent US20190183851A1, “USE OF 3,4,7-TRIHYDROXYISOFLAVONE OR 3-METHOXYDAIDZEIN IN PREPARATION OF DRUG FOR INHIBITING PLATELET AGGREGATION AND THROMBOSIS” (Kunming Institute of Zoology, Chinese Academy of Sciences, priority 2017, published 2019).

Experiments:
[1] = tested on: Healthy human platelets; assay: ADP-induced platelet aggregation in PRP; type: cell-based; conditions: 70 μmol/L ADP; for concentration dependence of inhibition of ADP-induced platelet aggregation: FIGS. 3 and 4
Method: Healthy human platelets were diluted with plasma to 2.5×10^8 platelets per mL. 300 μL of plasma-rich platelets was taken, added into different concentrations of samples at 37° C. and maintained at this temperature for 5 min, then added with 70 μmol/L ADP to induce aggregation, and an aggregation curve within 5 min was plotted on a platelet aggregation instrument. Platelet aggregation without sample treatment was used as a control.
300 μM of 3-methoxydaidzein could inhibit about 50% of platelet aggregation, while 100 μM of 3,4,7-trihydroxyisoflavone could inhibit about 50% of platelet aggregation.

[2] = tested on: mouse-tail thrombus; assay: carrageenan-induced mouse-tail thrombosis model; type: in vivo, Kunming mice; conditions: 24 h; for rate of thrombus inhibition versus dose: gavage 33, 100 and 300 μmol/kg; for rate of thrombus inhibition versus dose / inhibition of thrombosis in mouse tail versus negative control: carrageenan 40 mg/kg i.p.
Method: This embodiment relates to a carrageenan-induced mouse-tail thrombosis model.
The experiment animals, male Kunming mice, each with a body weight of 20-25 g, were randomly divided into groups (n=10) after fed for one week. The first group was a DMSO control group, the sample groups were gavaged with 3,4,7-trihydroxyisoflavone and 3-methoxydaidzein at concentrations respectively of 33, 100 and 300 μmol/kg, and the positive control was gavaged with 300 μmol/kg clopidogrel. 30 min after intragastric administration, carrageenan (type I, Sigma) was injected intraperitoneally into the mice at a dose of 40 mg/kg. Since the rate of thrombosis was >90% at a low temperature, the feeding temperature was 18° C. After 24 h, the mean length of thrombosis was determined according to the color change of the tail skin.

[3] = tested on: tail bleeding time of the mouse; assay: evaluation of bleeding risk, tail bleeding time; type: in vivo, C57BL/6 mice; conditions: 80 mg/kg by gavage; 3, 6 and 12 hours after administration; mice
Method: This embodiment relates to an evaluation of bleeding risk of 3,4,7-trihydroxyisoflavone and 3-methoxydaidzein.
Each group included 8 male C57BL/6 (18-20 g). The test sample group and the control group were administered by gavage. After 3, 6 and 12 hours of administration, the mice were placed into a self-made special holder to make the tails pass through a trimmed 1 mL pipette tip. 5 mm of the tail tip was cut off with a sterilized razor blade, and the mouse tail was immediately immersed into normal saline at 37° C. The bleeding time of the tail was observed by using the bloodstream stop time as an indicator.

[4] = tested on: washed human platelets; assay: collagen-induced platelet aggregation in washed human platelets; type: cell-based; conditions: 0.6 μg/mL collagen
Method: The collagen-induced platelet aggregation was detected by using washed human platelets. […] The platelet washing method was as follows: a. 1.4 mL platelets (concentrated platelet plasma) were poured into each 1.5 mL EP tube, and centrifuged at 400 g under room temperature for 5 min, and the supernatant was discarded; b. the platelets in each tube were resuspended with 0.5 mL of a tyrode A solution, and two tubes of resuspended platelets were combined into a new 1.5 mL EP tube, mixed well and centrifuged at 400 g under room temperature for 5 min; c. the platelets in each tube were resuspended with 1 mL of the tyrode A solution, transferred into a new EP tube, and centrifuged at room temperature at 400 g under room temperature for 5 min; d. the platelets in each tube were resuspended with 1 mL of a tyrode B solution, and the platelets were adjusted to an appropriate concentration with the tyrode B solution.

Structure (SMILES)	concentration dependence of inhibition of ADP-induced platelet aggregation [1]	inhibition at 100 µM ([1]; Homo sapiens, Platelet, 100 μM compound)	average thrombus length compared with clopidogrel ([2]; gavage 300 μmol/kg, compared with 300 μmol/kg clopidogrel)	rate of thrombus inhibition versus dose [2]	inhibition of thrombosis in mouse tail versus negative control ([2]; oral 100 μmol/kg)	tail bleeding activity versus non-administrated group (FIG. 8) [3]	concentration dependence of inhibition of collagen-induced platelet aggregation ([4]; FIGS. 1 and 2)	inhibition of platelet aggregation ([4]; 20 μM compound, washed human platelets)	inhibition at 300 µM ([1]; Homo sapiens, Platelet, 300 μM compound)	inhibition of thrombosis in mouse tail versus negative control ([2]; oral 300 μmol/kg)	tail bleeding activity versus non-administrated group (FIG. 9) [3]	inhibition at 20 µM ([4]; Platelet, 20 μM compound, washed human platelets)
O=c1c(-c2ccc(O)c(O)c2)coc2cc(O)ccc12 [3,4,7-trihydroxyisoflavone]	gradient-dependent manner	~50%	shorter than that of the group gavaged with 300 μmol/kg of clopidogrel	increased along with the increase of concentration	significantly inhibit	did not show any significant bleeding activity	gradient-dependent manner	completely inhibit				
COc1cc(-c2coc3cc(O)ccc3c2=O)ccc1O [3-methoxydaidzein]	gradient-dependent manner			increased along with the increase of concentration					~50%	significantly inhibit	did not show any significant bleeding activity	~50%
COC(=O)[C@H](c1ccccc1Cl)N1CCc2sccc2C1 [clopidogrel, reference compound]						increased bleeding significantly					increased bleeding significantly	
